According to PubChem BioAssay AID1259407 (Chemical Carcinogenesis Research Information System (CCRIS), 2018):
The source made the active and inactive calls. How the calls were made is not given here.

System: CCRIS mutagenicity, Ames/micronucleus/aberration tests
Test: CCRIS mutagenicity studies
[1] = Test System: AMES SALMONELLA TYPHIMURIUM, Strain/Indicator: TA98, Metabolic Activation: NONE, Method: STANDARD PLATE
[2] = Test System: AMES SALMONELLA TYPHIMURIUM, Strain/Indicator: TA100, Metabolic Activation: NONE, Method: STANDARD PLATE
[3] = Test System: AMES SALMONELLA TYPHIMURIUM, Strain/Indicator: TA97, Metabolic Activation: NONE, Method: PREINCUBATION
[4] = Test System: AMES SALMONELLA TYPHIMURIUM, Strain/Indicator: TA98, Metabolic Activation: NONE, Method: PREINCUBATION

For `CC1=CC(C=O)C(C=O)=C[C@@H]2CC(C)(C)C[C@H]12` (stereo partly specified), the mutagenic call [1] was “inactive; negative”, the mutagenic call [2] was “inactive; negative” and the mutagenic call (Test System: AMES SALMONELLA TYPHIMURIUM, Strain/Indicator: TA2637, Metabolic Activation: NONE, Method: STANDARD PLATE) was “inactive; negative”. The mutagenic call (Test System: CHINESE HAMSTER V-79, Strain/Indicator: V-79/6-THIOGUANINE (HGPRT), Metabolic Activation: NONE) was “inactive; negative”.
In the case of `Cc1c2c(cc3ccccc13)-c1ccccc1C1NC21` (stereo unspecified), the mutagenic call [3] is reported as “active; positive”, the mutagenic call [4] is reported as “active; positive” and the mutagenic call [1] is reported as “active; positive”. The mutagenic call [2] was “active; positive” and the mutagenic call (Test System: AMES SALMONELLA TYPHIMURIUM, Strain/Indicator: TA104, Metabolic Activation: NONE, Method: PREINCUBATION) was “active; positive”.
For `CC(C)(C)C(Br)C(=O)Nc1ccccc1` (stereo unspecified), the mutagenic call (Test System: AMES SALMONELLA TYPHIMURIUM, Strain/Indicator: TA100, Metabolic Activation: MOUSE, LIVER, S-9, AROCLOR 1254, Method: STANDARD PLATE) was “inactive; negative” and the mutagenic call [2] was “inactive; negative”.
For `Nc1ncn[nH]1`, the mutagenic call (Test System: AMES SALMONELLA TYPHIMURIUM, Strain/Indicator: TA97, Metabolic Activation: HAMSTER, LIVER, S-9, AROCLOR 1254 (10 OR 30%), Method: PREINCUBATION) was “inactive; negative”, the mutagenic call [3] was “inactive; negative” and the mutagenic call (Test System: AMES SALMONELLA TYPHIMURIUM, Strain/Indicator: TA97, Metabolic Activation: RAT, LIVER, S-9, AROCLOR 1254 (10 OR 30%), Method: PREINCUBATION) was “inactive; negative”. The mutagenic call (Test System: AMES SALMONELLA TYPHIMURIUM, Strain/Indicator: TA98, Metabolic Activation: HAMSTER, LIVER, S-9, AROCLOR 1254 (10 OR 30%), Method: PREINCUBATION) was “inactive; negative”, the mutagenic call [4] was “inactive; negative” and the mutagenic call (Test System: AMES SALMONELLA TYPHIMURIUM, Strain/Indicator: TA98, Metabolic Activation: PROSTAGLANDIN H SYNTHASE, Method: PREINCUBATION) was “inactive; negative”. For the same compound, the mutagenic call (Test System: AMES SALMONELLA TYPHIMURIUM, Strain/Indicator: TA98, Metabolic Activation: RAT, LIVER, S-9, AROCLOR 1254 (10 OR 30%), Method: PREINCUBATION) was “inactive; negative”, the mutagenic call (Test System: AMES SALMONELLA TYPHIMURIUM, Strain/Indicator: TA100, Metabolic Activation: HAMSTER, LIVER, S-9, AROCLOR 1254 (10 OR 30%), Method: PREINCUBATION) was “inactive; negative” and the mutagenic call (Test System: AMES SALMONELLA TYPHIMURIUM, Strain/Indicator: TA100, Metabolic Activation: NONE, Method: PREINCUBATION) was “inactive; negative”. For the same compound, the mutagenic call (Test System: AMES SALMONELLA TYPHIMURIUM, Strain/Indicator: TA100, Metabolic Activation: RAT, LIVER, S-9, AROCLOR 1254 (10 OR 30%), Method: PREINCUBATION) was “inactive; negative”, the mutagenic call (Test System: AMES SALMONELLA TYPHIMURIUM, Strain/Indicator: TA1535, Metabolic Activation: HAMSTER, LIVER, S-9, AROCLOR 1254 (10 OR 30%), Method: PREINCUBATION) was “inactive; negative” and the mutagenic call (Test System: AMES SALMONELLA TYPHIMURIUM, Strain/Indicator: TA1535, Metabolic Activation: NONE, Method: PREINCUBATION) was “inactive; negative”. The mutagenic call (Test System: AMES SALMONELLA TYPHIMURIUM, Strain/Indicator: TA1535, Metabolic Activation: RAT, LIVER, S-9, AROCLOR 1254 (5 OR 10%), Method: PREINCUBATION) was “inactive; negative”, the mutagenic call (Test System: AMES SALMONELLA TYPHIMURIUM, Strain/Indicator: TA1535, Metabolic Activation: RAT, LIVER, S-9, AROCLOR 1254 (30%), Method: PREINCUBATION) was “inactive; negative” and the mutagenic call (Test System: E. COLI, Strain/Indicator: WP2 UVRA, Metabolic Activation: HAMSTER, LIVER, S-9, AROCLOR 1254, Method: STANDARD PLATE) was “inactive; negative”. For the same compound, the mutagenic call (Test System: E. COLI, Strain/Indicator: WP2 UVRA, Metabolic Activation: HAMSTER, LIVER, S-9, Method: STANDARD PLATE) was “inactive; negative”, the mutagenic call (Test System: E. COLI, Strain/Indicator: WP2 UVRA, Metabolic Activation: MOUSE, LIVER, S-9, AROCLOR 1254, Method: STANDARD PLATE) was “inactive; negative” and the mutagenic call (Test System: E. COLI, Strain/Indicator: WP2 UVRA, Metabolic Activation: MOUSE, LIVER, S-9, Method: STANDARD PLATE) was “inactive; negative”. For the same compound, the mutagenic call (Test System: E. COLI, Strain/Indicator: WP2 UVRA, Metabolic Activation: NONE, Method: STANDARD PLATE) was “inactive; negative”, the mutagenic call (Test System: E. COLI, Strain/Indicator: WP2 UVRA, Metabolic Activation: RAT, LIVER, S-9, AROCLOR 1254, Method: STANDARD PLATE) was “inactive; negative” and the mutagenic call (Test System: E. COLI, Strain/Indicator: WP2 UVRA, Metabolic Activation: RAT, LIVER, S-9, Method: STANDARD PLATE) was “inactive; negative”. For the same compound, the mutagenic call (Test System: MOUSE LYMPHOMA, Strain/Indicator: L5178Y (TK+/TK-), Metabolic Activation: NONE, Method: SUSPENSION/PLATE) was “inactive; negative”, the mutagenic call (Test System: MOUSE LYMPHOMA, Strain/Indicator: L5178Y (TK+/TK-), Metabolic Activation: RAT, LIVER, S-9, AROCLOR 1254, Method: SUSPENSION/PLATE) was “inactive; negative” and the mutagenic call (Test System: MOUSE LYMPHOMA, Strain/Indicator: L5178Y (TK+/TK-), Metabolic Activation: RAT, LIVER, S-9, Method: SUSPENSION/PLATE) was “inactive; negative”.
In the case of `O=C(O)/C=C/Cl`, the mutagenic call (Test System: AMES SALMONELLA TYPHIMURIUM, Strain/Indicator: TA97, Metabolic Activation: RAT, LIVER, S-9, PCB, Method: STANDARD PLATE) is reported as “active; positive” and the mutagenic call (Test System: AMES SALMONELLA TYPHIMURIUM, Strain/Indicator: TA102, Metabolic Activation: RAT, LIVER, S-9, PCB, Method: STANDARD PLATE) is reported as “active; positive”.
With `CCCCN=NC(C)(C)OO` the mutagenic call (Test System: AMES SALMONELLA TYPHIMURIUM, Strain/Indicator: TA1535, Metabolic Activation: NONE) was “active; positive” and the mutagenic call (Test System: E. COLI, Strain/Indicator: WP2 (HCR-), Metabolic Activation: NONE) was “active; positive”.
In the case of `CCC[CH2][Sn]([CH2]CCC)([CH2]CCC)[CH2]CCC`, the mutagenic call (Test System: AMES SALMONELLA TYPHIMURIUM, Strain/Indicator: TA98, Metabolic Activation: NONE, Method: SUSPENSION/PLATE) is reported as “inactive; negative” and the mutagenic call (Test System: AMES SALMONELLA TYPHIMURIUM, Strain/Indicator: TA100, Metabolic Activation: NONE, Method: SUSPENSION/PLATE) is reported as “inactive; negative”.
With `C[C@H](CCC(=O)NCCS(=O)(=O)O)[C@H]1CC[C@H]2[C@@H]3C[C@H](O)[C@@H]4C[C@H](O)CC[C@]4(C)[C@H]3CC[C@]12C` the mutagenic call [1] was “inactive; negative”, the mutagenic call (Test System: AMES SALMONELLA TYPHIMURIUM, Strain/Indicator: TA98, Metabolic Activation: RAT, LIVER, S-9, AROCLOR 1254, Method: STANDARD PLATE) was “inactive; negative” and the mutagenic call [2] was “inactive; negative”. For the same compound, the mutagenic call (Test System: AMES SALMONELLA TYPHIMURIUM, Strain/Indicator: TA100, Metabolic Activation: RAT, LIVER, S-9, AROCLOR 1254, Method: STANDARD PLATE) was “inactive; negative”, the mutagenic call (Test System: AMES SALMONELLA TYPHIMURIUM, Strain/Indicator: TA1535, Metabolic Activation: NONE, Method: STANDARD PLATE) was “inactive; negative” and the mutagenic call (Test System: AMES SALMONELLA TYPHIMURIUM, Strain/Indicator: TA1535, Metabolic Activation: RAT, LIVER, S-9, AROCLOR 1254, Method: STANDARD PLATE) was “inactive; negative”. For the same compound, the mutagenic call (Test System: AMES SALMONELLA TYPHIMURIUM, Strain/Indicator: TA1537, Metabolic Activation: NONE, Method: STANDARD PLATE) was “inactive; negative”, the mutagenic call (Test System: AMES SALMONELLA TYPHIMURIUM, Strain/Indicator: TA1537, Metabolic Activation: RAT, LIVER, S-9, AROCLOR 1254, Method: STANDARD PLATE) was “inactive; negative” and the mutagenic call (Test System: AMES SALMONELLA TYPHIMURIUM, Strain/Indicator: TA1538, Metabolic Activation: NONE, Method: STANDARD PLATE) was “inactive; negative”. The mutagenic call (Test System: AMES SALMONELLA TYPHIMURIUM, Strain/Indicator: TA1538, Metabolic Activation: RAT, LIVER, S-9, AROCLOR 1254, Method: STANDARD PLATE) was “inactive; negative”.
